Data: US8420144B2, “Kokumi-imparting agent, method of using, and compositions containing same” (Ajinomoto Co., Inc., priority 2005, dated 2013)
Each block holds one compound with its values, some of them ahead of it. Numbered stars: 1 amine (or outer) side, 2 acyl side, 3 side chain; on linkers, the order of the positions; unused ones are H or OH. Square brackets hold non-standard residues; d marks the D form. Peptide text beside a SMILES is read from it. γGlu = O=C(O)[C@H](CCC(=O)[*:2])N[*:1]; Tle = CC(C)(C)[C@H](N)C(=O)O

Legend:
[1] = Quantitative sensory evaluation test: kokumi-imparting activity of peptides combined with known calcium receptor activators or additives; type: in vivo, human; settings: alone; for Intensity of kokumi: Aftertaste / Intensity of kokumi: First and middle taste: n=12, 0 control, 3 intense, 6 extremely intense
Method: The intensity of the kokumi-imparting activity of each peptide having confirmed calcium receptor activation activity and a known calcium receptor activator used in combination was measured by a quantitative sensory evaluation test, performed as follows: Samples of γ-Glu-Cys-Gly (glutathione) or γ-Glu-Val-Gly (0.0001 to 1 g/dl), or these samples combined with a calcium receptor activator such as calcium lactate, protamine or polylysine, or GABA (addition concentration: 0.0001 to 1 g/dl) were added to distilled water containing sodium glutamate (0.05 g/dl), inosine monophosphate (0.05 g/dl), and sodium chloride (0.5 g/dl), and the intensity of the kokumi-imparting activity was measured. Sample solutions that became acidic after dissolution of the samples were adjusted to pH 6.8 to 7.2 with NaOH before use. Sensory evaluation scores were used to evaluate as follows: 0 points for the control sample, 3 points for intense activity (as intensity of 0.05 g/dl γ-Glu-Cys-Gly and 0.005 g/dl γ-Glu-Val-Gly), and 6 points for extremely intense activity (as twice intensity of 0.05 g/dl γ-Glu-Cys-Gly and 0.005 g/dl γ-Glu-Val-Gly), and the test was performed with n=12.

[2] = biological target: T1, human CaSR (Homo sapiens, UniProt P41180); assay: Calcium receptor (CaSR) activation activity: calcium imaging in HEK 293 cells expressing human CaSR; type: cell-based; settings: concentration giving 50% of the maximal activity; single values n = 1, others n = 2 or 3
T1 construct: expressed in transfected cells; host or cells: HEK 293 cells, transient transfection of a CMV-promoter expression vector
T1 sequence (P41180 20-1078): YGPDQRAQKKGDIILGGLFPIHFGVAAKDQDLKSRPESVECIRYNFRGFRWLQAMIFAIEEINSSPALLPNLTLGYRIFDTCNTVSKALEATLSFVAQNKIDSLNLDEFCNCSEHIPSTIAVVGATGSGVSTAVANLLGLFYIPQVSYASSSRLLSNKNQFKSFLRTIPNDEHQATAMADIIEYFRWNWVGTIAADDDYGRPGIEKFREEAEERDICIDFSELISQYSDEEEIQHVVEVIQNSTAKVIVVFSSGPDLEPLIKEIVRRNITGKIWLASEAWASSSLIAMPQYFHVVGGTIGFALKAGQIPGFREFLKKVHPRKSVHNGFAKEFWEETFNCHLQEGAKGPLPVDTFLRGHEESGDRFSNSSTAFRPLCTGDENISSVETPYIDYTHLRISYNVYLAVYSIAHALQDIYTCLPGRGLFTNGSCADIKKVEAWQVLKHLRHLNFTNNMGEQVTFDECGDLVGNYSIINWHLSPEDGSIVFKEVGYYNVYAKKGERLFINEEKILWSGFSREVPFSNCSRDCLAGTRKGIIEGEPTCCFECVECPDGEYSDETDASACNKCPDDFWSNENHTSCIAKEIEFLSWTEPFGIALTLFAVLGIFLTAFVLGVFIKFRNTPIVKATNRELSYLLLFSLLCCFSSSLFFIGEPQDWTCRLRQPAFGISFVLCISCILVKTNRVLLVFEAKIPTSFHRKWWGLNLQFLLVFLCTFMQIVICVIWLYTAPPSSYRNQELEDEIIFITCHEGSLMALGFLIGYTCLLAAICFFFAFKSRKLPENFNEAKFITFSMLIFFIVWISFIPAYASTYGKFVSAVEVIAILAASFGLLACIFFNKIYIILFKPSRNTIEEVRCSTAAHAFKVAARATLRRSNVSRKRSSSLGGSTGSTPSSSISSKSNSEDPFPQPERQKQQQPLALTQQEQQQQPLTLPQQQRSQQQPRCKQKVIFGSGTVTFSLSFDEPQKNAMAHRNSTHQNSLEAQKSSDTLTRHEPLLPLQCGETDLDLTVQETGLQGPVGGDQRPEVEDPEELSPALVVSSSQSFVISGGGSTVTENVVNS
Method: Calcium receptor (CaSR) activation activity of peptides obtained in Examples 2, 3, and 5-12 were measured as follows. A cDNA of human CaSR obtained in Example 1 of WO2007/055393A1 was inserted into an expression vector for an animal cell having a CMV promoter, and the cDNA in the vector was introduced into HEK 293 cells, which had multiplied to 70% of the maximal cell density, using FuGINE6 (Roche Ltd.). After culturing the cells for 4 to 48 hours, 0.6-1.0×10^5 of cells/well were disseminated into a 96-well plate, subsequently, the cells were cultured for one day, and then stained using Calcium 3 Assay Kit. The presence or absence of a calcium receptor activation activity of each peptide was confirmed by a calcium imaging method using FLEXSTATION (Molecular Devices Inc., instruction manual). Furthermore, the concentration of each peptide giving 50% of the maximal activity (EC50) was calculated using a dose characteristic curve.

Compound: CC(O)C(=O)[O-].CC(O)C(=O)[O-].[Ca+2] (stereo not drawn) [Calcium lactate]
Evaluation remarks ([1]; 0.25 g/dl): Thickness | Intensity of kokumi: Aftertaste ([1]; 0.25 g/dl): 0.5 points | Intensity of kokumi: First and middle taste ([1]; 0.25 g/dl): 0.5 points

Evaluation remarks ([1]; 0.025 g/dl): Thickness | Intensity of kokumi: Aftertaste ([1]; 0.025 g/dl): 0.5 points | Intensity of kokumi: First and middle taste ([1]; 0.025 g/dl): 0.5 points
Compound: NCCCC(=O)O [GABA]

EC50 [2]: 65 to 79 nM
Compound: CC[C@H](NC(=O)CC[C@H](N)C(=O)O)C(=O)OCC(=O)O [γ-Glu-Abu-GlyA]

EC50 [2]: 102 nM
Compound: CC[C@H](NC(=O)CC[C@H](N)C(=O)O)C(=O)O[C@@H](C)C(=O)O [γ-Glu-Abu-LacA]

EC50 [2]: 349 to 1170 nM
Compound: CC(C)(NC(=O)CC[C@H](N)C(=O)O)C(=O)NCC(=O)O [γ-Glu-Aib-Gly]

EC50 [2]: 500 to 1500 nM
Compound: N[C@@H](CCC(=O)NC1(C(=O)NCC(=O)O)CCCC1)C(=O)O [γ-Glu-Cle-Gly]

EC50 [2]: 159 to 233 nM
Compound: CC(C)(S)[C@H](NC(=O)CC[C@H](N)C(=O)O)C(=O)NCC(=O)O [γ-Glu-Pen-Gly]

EC50 [2]: 140 nM
Compound: CC(C)[C@H](NC(=O)CC[C@H](N)C(=O)O)C(=O)OCC(=O)O [γ-Glu-Val-GlyA]

EC50 [2]: 57 nM
Compound: CC(C)[C@H](NC(=O)CC[C@H](N)C(=O)O)C(=O)O[C@@H](C)C(=O)O [γ-Glu-Val-LacA]

EC50 [2]: 50 nM
Compound: CC(C)(C)[C@H](NC(=O)CC[C@H](N)C(=O)O)C(=O)OCC(=O)O [γ-Glu-t-Leu-GlyA]

EC50 [2]: 43 to 77 nM
Compound: CC(C)(C)[C@H](NC(=O)CC[C@H](N)C(=O)O)C(=O)NCC(=O)O [γ-Glu-t-Leu-Gly] (γGlu-[Tle]-Gly-OH)

EC50 [2]: 38 nM
Compound: C[C@H](OC(=O)[C@@H](NC(=O)CC[C@H](N)C(=O)O)C(C)(C)C)C(=O)O [γ-Glu-t-Leu-LacA]

Compound: Polylysine
Evaluation remarks ([1]; 0.001 g/dl): Thickness | Intensity of kokumi: Aftertaste ([1]; 0.001 g/dl): 0.5 points | Intensity of kokumi: First and middle taste ([1]; 0.001 g/dl): 0.5 points

Intensity of kokumi: Aftertaste ([1]; 0.005 g/dl): 1.0 points | Intensity of kokumi: First and middle taste ([1]; 0.005 g/dl): 1.5 points
Compound: Protamine
